Laboratory results taken from US20060167021A1, “Inhibition of src for treatment of reperfusion injury related to revascularization” (Caritas St. Elizabeth's Medical Center of Boston, Inc., priority 2002, published 2006).
“And” between values parts separate entries of the source, which are not always exact repeats. Equal entries are not always repeated.

What was measured:
Sprague-Dawley rats [1] = assay: Rat acute MI model (permanent LAD ligation), infarct size by Evans blue/TTC; assay type: in vivo
Procedure: (§1) Generally, myocardial Infarction (MI) was induced by ligating the left anterior descending (LAD) coronary artery in Sprague-Dawley rats or in C57 black mice. Intraperitoneal injections of the inhibitors were delivered after the induction of infarction. High resolution magnetic resonance imaging (MRI), dry weight measurements, infarct size, heart volume and area at risk were determined 24 hours after induction of MI. Survival rates and echocardiography were determined at 4 weeks post-MI.
(§2) After 24 hours, 10% Evans blue (Sigma, St. Louis, Mo.) was injected intravenously before sacrifice. Hearts were removed and cut in three equivalent sections distal to the occluding LAD suture and one proximal. The distal sections were digitized to evaluate the nonperfused area at risk using NIH Image software. Sections were stained with 2% triphenyltetrazolium chloride ([…]) (Sigma, St. Louis, Mo.) to delineate ischemic area. Infarct size is presented as the percentage of area at risk to eliminate variability. For example, the area at risk (AAR) is measured as a function of (white+red area)/(blue+white+red area); the % infarct is measured as a function of (white area (% of LV area))/(blue+white+red area); and the % infarct/AAR is calculated as a function of (white area (% of AAR))/(white+red area).
Essentially, MI was induced in rats as described above. […] Control rats were mock-treated with the dimethylsulfoxide (DMSO) vehicle. Tests were performed 24 hours post-MI induction.
To study the kinetics of this response, PP1 was administered at various times following occlusion. Essentially, MI was induced in rats as described above. […] Control rats were mock-treated with the dimethylsulfoxide (DMSO) vehicle. Tests were performed 24 hours post-MI induction.

C57 black mice = assay: Mouse MI model (permanent occlusion), infarct size; assay type: in vivo
Procedure: as §1, §2

Sprague-Dawley rats [2] = assay: Ex-vivo myocardial water content (wet/dry weights); assay type: in vivo, rat
Procedure: (§3) In-vivo water content was evaluated using MRI performed serially on anesthetized rats 24 hours following MI using a 4.7-T MR scanner (Bruker Billerica Mass.). […] MRI experiments to quantify T2 values of the myocardium were conducted by applying an ECG and respiratory-triggered multiecho spin echo sequence (number of echoes, 8; echo time, 6.6 ms; slice thickness, 1.0 mm; inplane resolution, 430 μm^2; total slices, 6-7). The trigger delay was chosen to capture all echoes during full diastole to avoid motion artifact between echoes. Corresponding gradient echo images were also acquired for each slice to clearly delineate the blood/myocardium border for region of interest evaluation of the spin echo sequence. Because of their increased water content, edematous regions are expected to have a longer T2 relaxation than nonedematous regions. Regions with T2>40 ms (two standard deviations above the mean of normally perfused myocardium) were delineated and the volume calculated as a percentage of the total LV myocardial volume. In addition, ex-vivo myocardial water content of proximal heart sections was measured as the percentage difference between initial wet and dry weights after 24 hours incubation at 80° C. Transthoracic echocardiography (SONOS 5500, Agilent Technologies, Palo Alto, Calif.) was performed to evaluate LV function before (baseline) and 4 weeks after MI. For this analysis, rats were anesthetized with 0.6 ml/kg ketamine intraperitoneally.
Rats were treated with 0.5 mg/kg, 1.5 mg/kg, or a placebo post-MI induction and the myocardial water content was compared.

Sprague-Dawley rats [3] = assay: In-vivo MRI T2 mapping of edematous myocardium; parameters: species or system rat
Description: Because of their increased water content edematous regions are expected to have a longer 72 relaxation than nonedematous regions. As a result, T2 maps of the myocardium can be used as an index of water content. Regions with T2>40 ms (two standard deviations above normally perfused myocardium) were delineated as an index of edema.
Because of their increased water content, edematous regions are expected to have a longer T2 relaxation than nonedematous regions and therefore T2 maps of the myocardium can be used as an index of water content. Regions with T2>40 ms (two standard deviations above normally perfused myocardium) were delineated as an index of edema.

Sprague-Dawley rats [4] = assay: Echocardiography 4 weeks post-MI; assay type: in vivo, rat
Procedure: as §3
MI was induced in rats as described above. […] Tests were performed 24 hours post-MI induction. Four weeks post-MI, fraction shortening was assessed by echocardiography.

Sprague-Dawley rats [5] = assay: Rat ischemia/reperfusion model (echocardiography, Evan's blue & TTC staining at 24 hours); assay type: in vivo; parameters: LVDd / LVDs / AAR: unit not given beside the values
Procedure: as §2, §3
To establish whether Src inhibition is beneficial following transient ischemia, rats were subjected to occlusion followed by reperfusion, and then evaluated for ventricular function and infarct size after 24 hours. […] Subjects were evaluated with echocardiography (FIGS. 13 and 18) and TTC staining (FIGS. 14 and 18) 24 hours after occlusion (Table 7).

mouse cardiac tissue = assay: Ultrastructural analysis of cardiac tissue by electron microscopy after MI; assay type: in vivo; settings: 1.5 mg/kg 45 minutes following occlusion
Procedure: Cardiac tissue was prepared from mice following VEGF injection or 3-24 hours following ischemia and the infarct, the peri-infarct, and remote regions were sectioned. Tissue was fixed in 0.1 M sodium cacodylate buffer (pH 7.3) containing 4% paraformaldehyde+1.5% glutaraldehyde for 2 hours, transferred to 5% glutaraldehyde overnight, then 1% osmium tetroxide for 1 hour. Blocks were washed, dehydrated, cleared in propylene oxide, infiltrated with Epon/Araldite, and embedded in resin. Ultrathin sections were stained with uranyl acetate and lead citrate, and viewed using a Philips CM-100 transmission electron microscope.

[6] = tested on: Flk-cadherin-catenin complex; assay: In vivo permeability model: immunoprecipitation/immunoblotting after VEGF injection; settings: mice pretreated before VEGF injection; FIG. 20D
Procedure: At the appropriate time, the heart was rapidly excised and homogenized in 3 ml RIPA lysis buffer as previously described (Eliceiri et al. Mol. Cell 4: 915-924 (1999)) and the protein concentration measured (BCA Protein Assay; Pierce, Rockford, Ill.).
Tissue lysates were prepared for immunoprecipitation and immunoblotting as previously described (Eliceiri et al. Mol. Cell 4: 915-924 (1999)) with antibodies from Santa Cruz Biotechnology (Santa Cruz, Calif.): Flk (sc315), VE-cadherin (sc6458), β-catenin (sc7963), and P-Tyrosine (sc7020 or sc508). Representative data from at least three separate experiments is shown.
(Data is representative of at least three experiments.)
Heart lysates prepared from animals injected with or without VEGF were subjected to immunoprecipitation with anti-Flk followed by immunoblotting for VE-cadherin and β-catenin. In control mice, a pre-existing complex between Flk, β-catenin, and VE-cadherin in blood vessels was observed. This complex was rapidly disrupted within 2-5 minutes following VEGF stimulation, and had reassembled by 15 minutes in blood vessels in vivo. The timescale of complex dissociation completely paralleled that of Flk, β-catenin, and VE-cadherin phosphorylation and the dissociation of β-catenin from VE-cadherin.

VEGF = assay: Immunohistochemistry for VEGF in hearts 24 hours after MI; assay type: in vivo, rat; settings: 24 hours after induction of MI; FIGS. 2A and 2B
Procedure: FIGS. 2A and 2B show the results of an immunohistochemistry assay for VEGF on rat heart samples 24 hours after induction of myocardial infarction, with VEGF+ and ischemic regions indicated.

mice = settings: mouse, in vivo; cited from earlier work
[7] = tested on: 2-year-old C57 black mice; assay: Survival after MI in 2-year-old mice
Procedure: 2-year-old C57/ByJ mice were used as a model of severe MI to test the effects of Src inhibition on survival. […] Adult male Sprague-Dawley rats (Harlan, Indianapolis, Ind.) and C57/ByJ mice (Jackson Laboratory, Bar Harbor, Me.) were maintained under approved protocols.
MI was induced in mice. […] Survival rates were assessed.
To evaluate survival after MI, 2-year-old C57 black mice were used as a model characterized by considerable mortality (>40%) after LAD ligation.

CML cells = settings: cited from earlier work
[8] = tested on: Src family kinases Lyn and/or Hck; settings: cited from earlier work
[9] = individual rat, 1.5 mg/kg i.p., 24 hours after occlusion, 1.5 mg/kg
[10] = individual rat, Table 8, listed as Src-I
[11] = individual rat, Table 8, MRI, listed as Src-I

Cc1ccc(-c2nn(C(C)(C)C)c3ncnc(N)c23)cc1 [PP1]
maximum inhibition in infarct size (Sprague-Dawley rats [1]; 1.5 mg/kg i.p. 45 minutes after MI induction, 24 hours post-MI, FIG. 5): 68% | cardiac tissue 24 hours after induction of MI (Sprague-Dawley rats [1]; FIG. 1A vs 1B): cardioprotection | smaller infarct size (maximum benefit) (Sprague-Dawley rats [1]; additional experiments, administration 45 minutes following occlusion, FIG. 17): 50% | edema and infarct size, dose dependence (Sprague-Dawley rats [1]; additional experiments, maximum decrease at 1.5 mg/kg, FIGS. 15 and 16): dose-dependent decreases in edema and infarct size | protection (infarct size) (Sprague-Dawley rats [1]; additional experiments, treatment after 6 hours, FIG. 17): 25% | decrease in infarct size (Sprague-Dawley rats [1]; given six hours after LAD ligation, FIG. 7): 42% | decrease in infarct size following permanent occlusion (Sprague-Dawley rats [1]; permanent occlusion, quoted for comparison with ischemia-reperfusion): 50% | infarct size following permanent occlusion (Sprague-Dawley rats [1]; rat): significant reduction of infarct size | infarct size following permanent occlusion (C57 black mice): significant reduction of infarct size | decreased myocardial water content (Sprague-Dawley rats [2]; permanent MI, FIG. 8): 5%+/−1.3 | LV volumes with T2>40 ms versus vehicle treated rats (Sprague-Dawley rats [3]; 24 hours following permanent LAD occlusion, n=2, FIGS. 22A and 22B): a difference between LV volumes with T2>40 ms | fractional shortening assessed by echocardiography (Sprague-Dawley rats [4]; 4 weeks post-MI, 1.5 mg/kg i.p., FIG. 11): 33.7% | favorable effect on regional wall motion (Sprague-Dawley rats [4]; over 4 weeks, n=8): 9% | favorable effect on systolic LV diameter (Sprague-Dawley rats [4]; over 4 weeks, n=8): 16% | preservation of diastolic left ventricular diameter compared with untreated rats (Sprague-Dawley rats [4]; over 4 weeks, n=8): 11% | preservation of fractional shortening compared with untreated rats (Sprague-Dawley rats [4]; over 4 weeks, n=8 each group): 46% | % FS (echocardiography), group mean (Sprague-Dawley rats [5]; 1.5 mg/kg i.p., n=4, 24 hours): 30.6±3.16% | % infarct/AAR, group mean (Sprague-Dawley rats [5]; 1.5 mg/kg i.p., n=4, 24 hours): 42.4±3.72 % of AAR | Area at risk, group mean (Sprague-Dawley rats [5]; 1.5 mg/kg i.p., n=4, 24 hours): 36.1±9.61 | RWMS (echocardiography), group mean (Sprague-Dawley rats [5]; 1.5 mg/kg i.p., n=4, 24 hours): 18.5±0.58 | reduction in infarct size following ischemia-reperfusion (Sprague-Dawley rats [5]; FIG. 14): 18% | % FS (Sprague-Dawley rats [5]; [9]): 34.9% and 28.7% and 27.8% and 30.9% | AAR (Sprague-Dawley rats [5]; [9]): 32.9 and 27.2 and 34.4 and 49.7 | IA/AAR (Sprague-Dawley rats [5]; [9]): 42.1 and 42.4 and 47 and 37.9 | LVDd (Sprague-Dawley rats [5]; [9]): 0.729 and 0.737 and 0.877 and 0.797 | LVDs (Sprague-Dawley rats [5]; [9]): 0.475 and 0.525 and 0.633 and 0.551 | RWMS (Sprague-Dawley rats [5]; [9]): 18 (2×) and 19 (2×) | vascular gaps (ultrastructure) (mouse cardiac tissue): did prevent vascular gaps | Cardiac Damage (observations counted) (mouse cardiac tissue; 3 hr MI): 2 | EC Injury (observations counted) (mouse cardiac tissue; 3 hr MI): 14 | Platelet Activation & Adhesion (observations counted) (mouse cardiac tissue; 3 hr MI): 11 | EC Barrier Dysfunction (observations counted) (mouse cardiac tissue; 3 hr MI, approximately 250 microvessels): 2 | Cardiac Damage (observations counted) (mouse cardiac tissue; 24 hr MI): 9 | EC Barrier Dysfunction (observations counted) (mouse cardiac tissue; 24 hr MI): 0 | EC Injury (observations counted) (mouse cardiac tissue; 24 hr MI): 15 | Platelet Activation & Adhesion (observations counted) (mouse cardiac tissue; 24 hr MI): 1 | myocyte injury (ultrastructure) (mouse cardiac tissue; at 24 hours): significant reduction in myocyte injury | Flk-cadherin-catenin complex after VEGF injection [6]: remains intact | VEGF expression in the ischemic tissues (VEGF): did not interfere with VEGF expression | ischemia and brain damage after stroke (mice): reduce ischemia and brain damage after stroke | survival within the first 4 weeks ([7]; 1.5 mg/kg 45 minutes post-MI, n=12 each group): 91.7% | four-week survival rate ([7]; 1.5 mg/kg, FIG. 10): 100%

COc1cc(Nc2c(C#N)cnc3cc(OCCCN4CCN(C)CC4)c(OC)cc23)c(Cl)cc1Cl [SKI-606]
Water Content, group mean (Sprague-Dawley rats [2]; SKI-606 study, Example 9): 76.7±2.01 | % water (Sprague-Dawley rats [2]; [10]): 78% and 74.4% and 74.1% and 79.1% and 78.7% and 76.6% and 75.8% | MRI % T2>35, group mean (Sprague-Dawley rats [3]; SKI-606 study, Example 9): 18.4±8.85% | (%) T2 > 35 (Sprague-Dawley rats [3]; [11]): 27.518% and 13.699% and 13.287% and 28.257% and 9.198% | (%) T2 > 40 (Sprague-Dawley rats [3]; [11]): 17.955% and 5.743% and 7.537% and 19.466% and 5.719% | T2 > 40 (Sprague-Dawley rats [3]; individual rat, Table 9 summary, listed as Src-I): 19.466 and 5.719 and 17.955 and 5.743 and 7.537 | decrease in infarct size in the ischemia-reperfusion model (Sprague-Dawley rats [5]; 5 mg/kg, FIG. 19): 43% | % infarct/AAR, group mean (Sprague-Dawley rats [5]; SKI-606 study, Example 9): 54.8±2.45 % of AAR | Area at risk, group mean (Sprague-Dawley rats [5]; SKI-606 study, Example 9): 37.9±2.76 | RWMS (echocardiography), group mean (Sprague-Dawley rats [5]; SKI-606 study, Example 9): 21.3±1.25 | fractional shortening and regional wall motion score (Sprague-Dawley rats [5]; after 24 hours, n=7 each group): favorably impacted fractional shortening and regional wall motion score | % FS (Sprague-Dawley rats [5]; [10]): 21.6% | AAR (Sprague-Dawley rats [5]; [10]): 38.6 and 35.2 and 36.7 and 42.3 and 36.5 | Dd (Sprague-Dawley rats [5]; [10]): 0.873 and 0.881 and 0.703 and 0.805 and 0.865 and 0.669 and 0.89 | Ds (Sprague-Dawley rats [5]; [10]): 0.661 and 0.669 (3×) and 0.619 and 0.678 and 0.513 | IA/AAR (Sprague-Dawley rats [5]; [10]): 58.6 and 55.5 and 54.5 and 52.4 and 53 | RW MS (Sprague-Dawley rats [5]; [10]): 20 (2×) and 21 (3×) and 23 (2×) | antiproliferative activity against CML cells in culture (CML cells): potent antiproliferative activity | phosphorylation of the autoactivation site of Lyn and/or Hck [8]: reduces phosphorylation
